Measurements as given in PMC5589751, “Synthesis, high-throughput screening and pharmacological characterization of β–lactam derivatives as TRPM8 antagonists” (Scientific Reports, 2017).
Several values for one entry are separate records, joined by “and”; a condition that tells them apart may be missing. Identical values can stand only once.

How the values were obtained:
TRPM8 = target: T1, TRPM8 (Rattus norvegicus, UniProt Q8R455); assay: Whole-cell patch clamp in TRPM8-expressing HEK-CR1 cells (menthol, voltage, cold); assay type: cell-based; settings: for effect on menthol-evoked TRPM8 current at 1 µM / IC50: 500 µM menthol; for effect on cold-evoked TRPM8 current: cold 16 °C; for IC50: whole cell, ratio P2/P1, read-out: IC50, TRPM8 activity evoked by menthol (patch clamp); for Hill coefficient nH: dose-response against 500 µM menthol
T1 construct: expressed in transfected cells
T1 sequence (Q8R455 whole entry): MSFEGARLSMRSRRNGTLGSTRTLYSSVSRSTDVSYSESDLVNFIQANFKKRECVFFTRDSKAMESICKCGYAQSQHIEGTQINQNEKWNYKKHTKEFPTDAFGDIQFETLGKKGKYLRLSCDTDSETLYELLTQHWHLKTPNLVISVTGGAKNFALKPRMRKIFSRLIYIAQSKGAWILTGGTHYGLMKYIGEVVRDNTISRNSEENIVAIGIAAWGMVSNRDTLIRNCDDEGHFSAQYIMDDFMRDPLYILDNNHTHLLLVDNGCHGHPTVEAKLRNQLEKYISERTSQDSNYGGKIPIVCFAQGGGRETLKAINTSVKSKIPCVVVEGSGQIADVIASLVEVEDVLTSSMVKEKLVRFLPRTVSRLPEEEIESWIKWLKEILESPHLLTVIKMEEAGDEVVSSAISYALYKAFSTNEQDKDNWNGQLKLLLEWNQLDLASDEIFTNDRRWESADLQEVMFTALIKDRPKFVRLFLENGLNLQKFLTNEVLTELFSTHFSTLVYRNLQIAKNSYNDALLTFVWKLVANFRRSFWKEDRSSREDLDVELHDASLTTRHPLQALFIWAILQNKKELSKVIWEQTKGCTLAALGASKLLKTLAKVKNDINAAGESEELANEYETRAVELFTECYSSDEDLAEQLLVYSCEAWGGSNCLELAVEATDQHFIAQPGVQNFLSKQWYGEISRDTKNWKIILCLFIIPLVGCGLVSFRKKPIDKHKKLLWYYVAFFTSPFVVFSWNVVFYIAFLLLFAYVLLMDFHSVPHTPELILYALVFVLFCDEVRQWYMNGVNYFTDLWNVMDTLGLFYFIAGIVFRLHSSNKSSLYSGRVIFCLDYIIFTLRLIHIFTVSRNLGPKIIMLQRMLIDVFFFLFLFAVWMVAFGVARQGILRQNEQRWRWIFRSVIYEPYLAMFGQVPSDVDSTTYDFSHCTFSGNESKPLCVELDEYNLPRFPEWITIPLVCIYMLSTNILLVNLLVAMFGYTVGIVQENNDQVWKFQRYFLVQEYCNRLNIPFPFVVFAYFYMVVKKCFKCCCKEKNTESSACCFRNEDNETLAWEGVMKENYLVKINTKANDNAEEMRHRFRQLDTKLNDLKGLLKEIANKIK
Experimental: As depicted in Fig. 3, perfusion with 500 µM menthol activated a large TRPM8 inward current at −60 mV (Fig. 3, control). […] The extent of TRPM8 activity shown in Fig. 3 corresponds to the ratio of channel activity between the second (P2) and the first (P1) pulses (ratio P2/P1) of menthol in order to take into account the channel desensitization (supplementary information Fig. 3S)[36], [37].
Left: Representative whole-cell voltage clamp recordings from TRPM8-expressing HEK-CR1 cells and compound 41 (A) and 45 (B). Voltage was held at −60 mV. Pre-application of compounds (20 s) was followed by co-application with 500 µM menthol (Control) for 20s. Current traces of different colours denote the different concentrations of compounds tested. Right: Dose response of compound 41 (A, red), 45 (B, blue) TRPM8 blocked activity. Solid line depicts the fitting to a Hill equation. Data are given as mean ± SEM, with n > 4 cells per data point.
Figure 4 Compound 41 abolished the voltage-evoked response on TRPM8. (A) Representative families of TRPM8 ionic currents in absence (Control) or presence of 1 μM 41 elicited with a voltage step protocol consisting of 200-ms depolarizing pulses from −60 to +120 mV in steps of 20 mV (inset). Holding potential −60 mV, time between pulses = 5s. (B) I-V relationships of TRPM8 channel activity in the absence (black) and presence of 1 µM 41 (red).
Figure 5 Compound 41 abolished the cold thermal activity response on TRPM8. Left: Representative families of TRPM8 ionic currents at +80mV in absence (A) or presence of 1µM 41 (B) activated by cold temperature (16 °C) obtained with a 300-ms ramp from −80 to +80 mV in intervals of 2 s during 3 minutes. Holding potential −60 mV. Right: I-V relationships of TRPM8 channel in basal conditions (a, black line), activated by cold in the absence (b, green line) and presence of 1 µM 41 (c, blue line). (C) Ratio currents between pulse 2 and pulse 1 induced by menthol in the absence (black bar) or in the presence (blue bar) of compound 41.
Electrophysiological recording was carried out 1–3 d after cells seeded. Membrane currents and voltages were recorded by patch clamp using the whole-cell configuration. For whole-cell recordings of HEK-hTRPV1 and HEK-TRPM8 cells, pipette solution contained (in mM) 140 CsCl, 5 EGTA, and 10 HEPES, adjusted to pH 7.2 with CsOH, and bath solution contained (in mM) 140 NaCl, 5 KCl, 2 CaCl2, 2 MgCl2, 5 EGTA, 10 D-glucose, 10 Mannitol and 10 HEPES, adjusted to pH 7.4 with NaOH. In calcium-free bath solution, CaCl2 was replaced with 5mM EGTA. For potassium and sodium recordings, CsCl was substituted by KCl and the pH was adjusted to pH 7.2 with KOH. Patch pipettes were prepared from thin-walled borosilicate glass capillaries (World Precision Instruments, Sarasota, FL, USA), pulled with a horizontal puller (P-97, Sutter Instruments, Novato, CA, USA) to have a tip resistance of 2–4 MΩ when filled with internal solutions. Data were sampled at 10 kHz (EPC10 amplifier with PatchMaster 2.53 software, HEKA Electronics, Lambrecht, Germany) and low-pass filtered at 3 kHz for analysis (PatchMaster 2.53 and GraphPad Prism 5, Graphpad Software, USA). The series resistance was <10 MΩ and to minimize voltage errors was compensated to 60–80%. All measurements were performed at 24–25°C. The temperature was adjusted with a water-cooled Peltier device placed at the inlet of the chamber and controlled by a feedback device (Automatic Temperature Controller TC-324B, Warner Instruments). Cold-sensitivity was investigated with a temperature decrease to 16–18 °C.

Kinetic solubility = assay type: physicochemical
TRPA1 = TRPA1 (Homo sapiens, UniProt O75762); assay: Whole-cell patch clamp in cells expressing TRPA1; assay type: cell-based
Sequence of TRPA1 (O75762 whole entry, species assumed): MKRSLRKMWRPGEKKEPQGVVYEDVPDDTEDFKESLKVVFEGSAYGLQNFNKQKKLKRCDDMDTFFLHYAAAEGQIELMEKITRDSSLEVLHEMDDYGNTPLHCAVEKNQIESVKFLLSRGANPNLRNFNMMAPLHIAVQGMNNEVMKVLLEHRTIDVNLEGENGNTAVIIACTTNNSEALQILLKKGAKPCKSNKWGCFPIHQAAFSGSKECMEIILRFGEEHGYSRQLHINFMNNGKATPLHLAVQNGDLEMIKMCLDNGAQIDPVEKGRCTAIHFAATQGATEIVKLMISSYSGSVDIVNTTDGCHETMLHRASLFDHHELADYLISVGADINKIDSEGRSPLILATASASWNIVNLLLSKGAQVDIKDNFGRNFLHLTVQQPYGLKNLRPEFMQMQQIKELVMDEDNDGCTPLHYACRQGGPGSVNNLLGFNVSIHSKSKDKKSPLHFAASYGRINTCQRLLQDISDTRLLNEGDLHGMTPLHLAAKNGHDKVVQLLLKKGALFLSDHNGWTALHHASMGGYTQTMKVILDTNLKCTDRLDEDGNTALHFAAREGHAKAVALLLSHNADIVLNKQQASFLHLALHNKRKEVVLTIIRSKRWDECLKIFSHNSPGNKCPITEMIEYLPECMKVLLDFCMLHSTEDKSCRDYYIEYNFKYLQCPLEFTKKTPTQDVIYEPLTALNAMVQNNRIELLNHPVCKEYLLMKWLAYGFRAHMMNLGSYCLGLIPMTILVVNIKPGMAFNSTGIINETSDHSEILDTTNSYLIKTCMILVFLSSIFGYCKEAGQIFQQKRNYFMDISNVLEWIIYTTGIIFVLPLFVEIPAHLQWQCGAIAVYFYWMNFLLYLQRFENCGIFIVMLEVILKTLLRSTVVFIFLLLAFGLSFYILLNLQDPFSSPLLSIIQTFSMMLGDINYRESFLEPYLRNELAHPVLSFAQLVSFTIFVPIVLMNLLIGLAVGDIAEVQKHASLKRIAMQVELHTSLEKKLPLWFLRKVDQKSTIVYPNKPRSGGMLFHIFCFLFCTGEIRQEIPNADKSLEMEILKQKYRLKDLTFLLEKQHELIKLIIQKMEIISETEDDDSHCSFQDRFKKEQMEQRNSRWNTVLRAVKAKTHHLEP
Experimental: (§1) Electrophysiological recording was carried out 1-3 d after cells seeded. Membrane currents and voltages were recorded by patch clamp using the whole-cell configuration. […] In calcium-free bath solution, CaCl2 was replaced with 5mM EGTA. For potassium and sodium recordings, CsCl was substituted by KCl and the pH was adjusted to pH 7.2 with KOH. Patch pipettes were prepared from thin-walled borosilicate glass capillaries (World Precision Instruments, Sarasota, FL, USA), pulled with a horizontal puller (P-97, Sutter Instruments, Novato, CA, USA) to have a tip resistance of 2-4 MΩ when filled with internal solutions. Data were sampled at 10 kHz (EPC10 amplifier with PatchMaster 2.53 software, HEKA Electronics, Lambrecht, Germany) and low-pass filtered at 3 kHz for analysis (PatchMaster 2.53 and GraphPad Prism 5, Graphpad Software, USA). The series resistance was <10 MΩ and to minimize voltage errors was compensated to 60-80%. All measurements were performed at 24-25°C. The temperature was adjusted with a water-cooled Peltier device placed at the inlet of the chamber and controlled by a feedback device (Automatic Temperature Controller TC-324B, Warner Instruments). Cold-sensitivity was investigated with a temperature decrease to 16-18 °C. page 44: Figure 1S. […] A) […] compound 41 (blue line). Pre-application of compound (20 s) was followed by coapplication with 500 […] 41. […] C) […] Pre-application of […] Voltage was held at -60 mV for all the experiments. […] (1 picture or pasted object on this page, not shown here)

hTRPV1 = target: T2, hTRPV1 (Homo sapiens, UniProt Q8NER1); assay: Whole-cell patch clamp in cells expressing hTRPV1; assay type: cell-based
T2 construct: expressed in transfected cells; host or cells: HEK
T2 sequence (Q8NER1 whole entry): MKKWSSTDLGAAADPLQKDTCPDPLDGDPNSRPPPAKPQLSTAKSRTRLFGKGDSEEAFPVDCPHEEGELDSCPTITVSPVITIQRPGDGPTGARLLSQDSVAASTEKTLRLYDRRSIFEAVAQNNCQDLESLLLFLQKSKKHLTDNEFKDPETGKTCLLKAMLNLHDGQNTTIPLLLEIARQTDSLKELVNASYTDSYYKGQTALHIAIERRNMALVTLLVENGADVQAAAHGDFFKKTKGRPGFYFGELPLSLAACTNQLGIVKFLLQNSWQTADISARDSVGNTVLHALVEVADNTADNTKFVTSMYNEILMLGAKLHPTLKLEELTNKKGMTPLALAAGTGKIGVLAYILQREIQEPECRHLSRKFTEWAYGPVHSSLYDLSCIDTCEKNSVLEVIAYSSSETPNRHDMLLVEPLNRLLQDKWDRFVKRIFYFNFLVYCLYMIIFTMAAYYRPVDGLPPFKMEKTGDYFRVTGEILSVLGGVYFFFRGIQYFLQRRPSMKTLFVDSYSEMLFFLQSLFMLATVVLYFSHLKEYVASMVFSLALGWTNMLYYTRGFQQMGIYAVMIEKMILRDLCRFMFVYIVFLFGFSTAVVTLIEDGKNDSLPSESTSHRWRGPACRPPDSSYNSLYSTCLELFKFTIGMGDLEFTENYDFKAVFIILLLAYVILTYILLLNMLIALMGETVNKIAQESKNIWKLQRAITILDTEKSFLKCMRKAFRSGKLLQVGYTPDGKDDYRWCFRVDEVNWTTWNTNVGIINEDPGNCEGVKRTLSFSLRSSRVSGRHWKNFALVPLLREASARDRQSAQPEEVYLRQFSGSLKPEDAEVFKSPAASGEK
Experimental: as §1

CC(C)(C)OC(=O)N[C@@H](CCN1C(=O)CC1(Cc1ccccc1)C(=O)OCc1ccccc1)C(=O)OCc1ccccc1 (some centres unmarked) [Compound 41, 4R,S-Benzyl-4-benzyloxycarbonyl-1-[(3′S-benzyloxycarbonyl-3-tert-butoxycarbonylamino-3′-benzyloxycarbonyl)prop-1′-yl]-2-oxoazetidine]
effect on menthol-evoked TRPM8 current at 1 µM (TRPM8; 1 µM compound): almost totally absence of current
effect on cold-evoked TRPM8 current (TRPM8; 1 µM compound): significant decrease in the current intensity
reduction of voltage-mediated TRPM8 activity (TRPM8; 1 µM compound, depolarizing voltage +120 mV): 90 ± 2%
agonist activity (activation) on TRPM8 (TRPM8; 1 µM compound, −60 mV): did not produce activation
reversibility of TRPM8 block (TRPM8; 1 µM, menthol pulse four minutes after removal of compound): reversible
IC50 (TRPM8; −60 mV): 46 nM
Hill coefficient nH (TRPM8; −60 mV): −1.5 ± 0.3
Kinetic solubility (Kinetic solubility; 1% DMSO): < 10 µM
Kinetic solubility (Kinetic solubility; 5% DMSO): < 10 µM
IC50 (TRPA1): > 1000 nM
agonist activity (activation) on TRPA1 (TRPA1; 1 µM compound, −60 mV): did not produce activation
IC50 (hTRPV1): > 1000 nM
agonist activity (activation) on TRPV1 (hTRPV1; 1 µM compound, −60 mV): did not produce activation

CC1C(=O)N(CC[C@H](NC(=O)OC(C)(C)C)C(=O)OCc2ccccc2)C1(Cc1ccccc1)C(=O)OCc1ccccc1 (stereo partly drawn) [Compound 45, 4R,S-Benzyl-4-benzyloxycarbonyl-1-[(3′S-benzyloxycarbonyl-3′-tert-butoxycarbonylamino)prop-1′-yl]-(3R,S)-methyl-2-oxoazetidine]
effect on voltage-evoked TRPM8 outward currents (TRPM8; 1 µM compound): reduce significantly
effect on menthol-evoked TRPM8 current at 1 µM (TRPM8; 1 µM compound): almost totally absence of current
effect on cold-evoked TRPM8 current (TRPM8; 1 µM compound): reduce significantly
IC50 (TRPM8; −60 mV): 82.9 nM and 83 nM
Hill coefficient nH (TRPM8; −60 mV): −1.1 ± 0.2
IC50 (TRPA1): > 1000 nM
IC50 (hTRPV1): > 1000 nM
